# Measured values: patent publication US20230301883A1, “MOISTURIZING ANTIBACTERIAL COMPOSITION” (priority 2020, published 2023)
# Key:
# [1] = tested on: melanin content of cells; assay: Melanin content assay; format: cell-based; details: for % Inhibition in Melanin Content: 72 hours incubation
# Protocol: In this Example, cells were grown for 24 hours and treated with bioactives and incubated for 72 hours. Post treatment, the cells were lysed and absorbance measured at 405 nm. The lysate was transferred to a fresh 384-well clear flat bottom plate and an […] was measured at 405 nm using a FlexStation 3 reader. (% reduction in melanin content was measured by taking the mean absorbance value of the control−the mean absorbance value of the treated cells/the mean absorbance value of the control)*100
# [2] = Water solubility in sensory oil (solvency of the oil for water); format: physicochemical; details: yes/no
# Text: (§1) A sensory oil can be used in the antibacterial composition to assist in leaving the user with a non-tacky feeling to the skin after application of the composition. The antibacterial composition comprises a sensory oil in an amount of 0.01 to 10% by weight, preferably 0.5 to 5% by weight including all values and ranges subsumed therein. The sensory oil can comprise a soluble sensory oil. Sensory oils desirable for use in the antibacterial composition disclosed herein must meet the following criteria: the sensory oil must be liquid, the sensory oil must be soluble in at least a 75/25 or higher ratio of EtOH/Water which is to be reflective of solubility in the final composition to give a clear final antibacterial composition, and the sensory oil must have no solvency for water.
# (§2) The examples are not meant to limit the materials that can be used but merely to illustrate oil type and level selected based on three criteria. […] Finally, the preferred oil must itself not have solvency for water such that during application and on drying as the ethanol and water evaporate, the water is also allowed to quickly evaporate leaving behind only the oil and any skin benefit actives/moisturizers if present.
# [3] = Solubility of sensory oil in 75/25 EtOH/Water blend; format: physicochemical
# Text: as §1, §2
# [4] = tested on: cells; assay: Wound healing (scratch closure) assay; format: cell-based; details: 24 hours after scratch
# Protocol: In this example, various combinations of benefit agents were tested for resilience wound healing and barrier repair. For wound healing assessments, cells were grown to 80% confluency and treated with bioactives for 24 to 36 hours. Post treatment, a scratch was created on the cell and closure of the wound was monitored after 24 hours of incubation. Closure of the scratch area was calculated as a % closure of the wound. Microscopic images were captured at a magnification of 4× and the open wound area measurements were analyzed using the software CellSens. Wound closure in percentage=(mean of the readings of the open wound area at (t=24)−mean of the readings of the open wound area at (t=0)/mean of the readings at (t=0))*100.
Compound,Water solubility in sensory oil [2],Solubility in 75/25 EtOH/Water [3] [%],further results
"CCCCCCc1ccc(O)cc1O [4-Hexyl resorcinol, reference compound]",–,–,"inhibition at 10 µM ([1]; 10 micromolar, read-out: % inhibition in melanin content (benchmark)): ~33%"
CCCCC(CC)COC(=O)CC(O)C(=O)OCC(CC)CCCC (centres unmarked) [Diethyl hexyl malate],No,>30,–
CCCCC(CC)COC(=O)CCCCCCCCC(=O)OCC(CC)CCCC (centres unmarked) [Diethyl hexyl sebacate],No,<10,–
CCCCC(CC)COC(=O)CCCCC(=O)OCC(CC)CCCC (centres unmarked) [Diethylhexyl adipate],No,<10,–
CC(C)OC(=O)CCCCC(=O)OC(C)C [Disopropyl adipate],No,>30,–
CCCCCCCCCCCCOC(=O)C(C)O (centres unmarked) [Lauryl lactate],No,>30,–
"NC(=O)c1cccnc1 [Vitamin B3, niacinamide]",–,–,% Inhibition in Melanin Content ([1]; 0.2%): 7.47%; % Closure in Scratch Area ([4]; 0.2%): 30%
Dicapryl maleate,No,<10,–
Glyceryl Monoleate,yes,>30,–
Isocetyl alcohol,No,<10,–
PPG-2 Isoceteth-20 Acetate,no,>30,–
PPG-2-Isoceteth-2,Yes,>30,–
Sodium Hyaluronate,–,–,% Inhibition in Melanin Content ([1]; 0.001%): 9.09%; % Closure in Scratch Area ([4]; 0.001%): 51%
tocopherol [Vitamin E],–,–,% Inhibition in Melanin Content ([1]; 0.001%): 3.56%; % Inhibition in Melanin Content ([1]; 0.05%): 15.62%; % Closure in Scratch Area ([4]; 0.001%): 32%; % Closure in Scratch Area ([4]; 0.05%): 48%
